According to the METLIN SMRT retention time set (Domingo-Almenara et al. 2019):

Experiment: gradient 5% acetonitrile 3 min, to 50% in 2 min, to 85% in 15 min, held 3 min, 100 µL/min
Details: column: Zorbax Extend-C18 2.1 x 50 mm; eluents: water / acetonitrile, 0.1% formic acid
Procedure, shortened: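 A Zorbax Extend-C18 column (2.1 × 50 mm, 1.8 μm) run at 100 μL/min with water and acetonitrile, both containing 0.1% formic acid, separated mixtures of ~100 pure standards. The HPLC was coupled to a quadrupole time-of-flight mass spectrometer operated in positive and negative ionization mode, with dead and dwell volumes of 40 μL and 900 μL. Each retention time was taken from a computationally picked adduct peak that was then manually inspected.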

Structure (SMILES)	RP-LC retention time [s]
CCNc1nc(Nc2cc(F)c(C(=O)N3CCOCC3)cc2OC)ncc1C(F)(F)F	915
Cc1ccc(-c2noc(Cn3ccn(-c4cc(C)cc(C)c4)c(=O)c3=O)n2)cc1	612
CCN(Cc1ccc(Cl)cc1)Cc1cc(=O)n2ccccc2n1	615
CCn1ccc(C(=O)N2CC(c3nc(C4CC4)no3)C3(CCN(C)CC3)C2)n1 (configuration not stated)	586
CCNC(=O)c1sc2nc(-c3ccc(F)cc3)c(NCCOC)n2c1C	777
Cc1ccccc1OCC(=O)NCc1c(C)noc1C	790
CCOc1ccc(NC(=O)C(C)C2CCN(C(=O)Nc3ccc(Cl)cc3)CC2)cc1 (configuration not stated)	942
O=C(Nc1cnc(N2CCCCC2)nc1)C1CCCC1	834
Cc1ccc(C)c(NC(=O)C2CCCN2S(C)(=O)=O)c1 (configuration not stated)	738
CCOc1ccc(-c2csc3c(=O)n(Cc4ccc(F)cc4)cnc23)cc1OCC	1100
COc1ccc(OC)c(NC(=O)N2CCc3cn(CC(C)C)c4cccc(c34)C2)c1	1160
CCc1cc(N2CCN(C(=O)c3cc(OC)cc(OC)c3)CC2)nc2nncn12	601
CCCCc1nnc2sc(COc3ccc(C)c(C)c3)nn12	1120
CCC(=O)N(C1CCOCC1)C1CCN(S(=O)(=O)c2cc(F)cc(F)c2)CC1	856
O=C(c1cc2c(s1)CCCC2)N1CCc2[nH]cnc2C12CCCCC2	692
CCOc1ccc2nc(NC(=O)Cc3csc4nc(-c5ccc(OC)c(OC)c5)cn34)sc2c1	784
COc1cc(-c2cccc(Cl)c2)nc2ccc(NC(C)=O)cc12	668
C[C@@H]1OC(Oc2ccccc2-c2cc(=O)c3c(O)cc(O)c([C@@H]4O[C@H](CO)[C@@H](O)[C@H](O)[C@H]4O)c3o2)[C@H](O)[C@H](O)[C@H]1O (some centres not stated)	622
COc1ccc(-c2nc(Cn3ccn4nc(-c5ccc(OC)c(OC)c5)cc4c3=O)c(C)o2)cc1	968
CCc1ccc(NC(=O)CSc2nnc3c4cc(-c5ccc(F)cc5)nn4ccn23)cc1	984
COCCNC(=O)C1CCN(c2cnc(N3CCCCCC3)nc2)CC1	617

Structure (SMILES)	RP-LC retention time [s]
CC(C)NC(=O)N1CCCC(CCc2nnc(-c3cnccn3)o2)C1 (configuration not stated)	627
CCCn1cc(CCNC(=O)Nc2cccc(Cl)c2C)c2cccnc21	889
Cc1cc2c(cc1C)[n+](=O)c(C(=O)/C=C/c1ccccc1[N+](=O)[O-])c(C)n2[O-]	806
O=C(NC1CC1)C1CCCN(C(=O)c2ccoc2)C1 (configuration not stated)	584
O=C(Nc1ccc2nc3n(c(=O)c2c1)CCC3)Nc1ccc(F)cc1F	686
CC(C)CN1CCCCc2cc(C(=O)NC3CCS(=O)(=O)C3)sc21 (configuration not stated)	941
C=CCn1nnc(NCc2ccc(-c3cccc(Cl)c3)o2)n1	1050
CCOc1cccc(C2C(C(=O)OC(C)C)=C(C)NC3=C2C(=O)C(C(=O)OC)C(C)C3)c1 (configuration not stated)	968
CCOc1cccc(-c2noc(Cc3nnc(-c4ccc(F)cc4)o3)n2)c1	1080
CCc1nnc(NC(=O)c2c[nH]c3c(Cl)cccc3c2=O)s1	693
Cc1ccc(NC(=O)c2cnn3c2CCCC3)c(C)c1	762
COc1ccc(Nc2nc(-c3nnn(-c4ccc(F)cc4F)c3C)ns2)cc1OC	900
Cc1ccc(-n2c(=O)c3sccc3n(Cc3nc(-c4ccc(F)cc4)no3)c2=O)cc1	1030
CC1CCN(c2ccc(-c3noc(CCC(=O)N4CCN(C5CCCCC5)CC4)n3)cc2)CC1	733
O=C([C@@H]1C[C@H](F)CN1C(=O)COc1ccc(F)cc1)N1CCCCC1	714
CCCN(CCC)c1nc(-c2ccc(Cl)cc2)nc2ccccc12	961
COc1ccc(OC)c(NC(=O)Cn2c(C)cc(-c3nnc(C)o3)c2C)c1	776
Cc1csc(COc2ccc(C(=O)Nc3ccccc3OC(F)(F)F)cc2)n1	933
Cc1cc(C(=O)N2CCCCC2)c2c(=O)n(CC(=O)Nc3cc(F)ccc3F)c(=O)n(C)c2n1	837
COc1ccc(Cl)cc1NC(=O)Nc1ccccc1NC(=O)c1ccco1	873

The remaining lines, values ahead:

RP-LC retention time [s]	Structure (SMILES)
657	COc1cccc(-c2nc(-c3ccc4c(c3)ncn4CCN3CCCCC3)no2)c1
900	O=C(c1ccc(F)c(F)c1)N1CCN(c2cc(-c3ccc(Cl)cc3)[nH]n2)CC1
668	CCOC(=O)c1noc2nc(C)nc(NCCCN3CCN(c4ccccc4)CC3)c12
605	CCCCNC(=O)Cn1c(CC)nc2c(c1=O)CN(Cc1ccccc1)CC2
1150	Cc1ccc(-c2csc(NC(=O)c3ccccc3Br)n2)c(C)c1
837	COc1ccc(CNC(=O)C2CCCN(c3ccc(=O)n(-c4ccc(C)c(Cl)c4)n3)C2)cc1OC (configuration not stated)
644	Cc1ccccc1NC(=O)Cn1cnc2nc(N3CCC(C(=O)NC4CC4)CC3)sc2c1=O
808	COc1ccc(-c2noc(C3CCCN3C(=O)c3ccnn3C)n2)cc1 (configuration not stated)
893	Cc1nnc(-c2cn(CC(=O)Nc3cccc(Br)c3)c3ccccc23)o1
769	CC1=C(c2ccccc2)S(=O)(=O)N=C1N1CCCN(S(=O)(=O)c2cccnc2)CC1
940	Cc1cccc2c(=O)n(C3CCN(S(=O)(=O)c4ccccc4F)CC3)cnc12
812	Cc1cccc(N2CCN(C(=O)CN3C(=O)CN(C)C(=O)c4ccccc43)CC2)c1C
667	COc1cc(NC(=O)CSc2nccc(N3CCN(c4cccc(OC)c4)CC3)n2)cc(OC)c1
1080	CC(C)Cc1nc(-c2ccccc2)oc1CC(=O)NCc1ccc(F)c(Cl)c1
722	Cc1ccc(C)c(NC(=O)Cn2nc3n(c2=O)CCCCC3)c1
733	CC1=C(c2ccc(C)cc2)S(=O)(=O)N=C1N1CCCN(C(=O)C2CCCO2)CC1 (configuration not stated)
673	O=S(=O)(c1cccc2c(I)cccc12)N1CCCNCC1
769	Cc1cc(N2CCN(S(=O)(=O)c3cc(F)ccc3F)CC2)nc(N2CCCCC2)n1
831	COc1ccc(NC(=O)Cn2c(=O)nc(N3CCC(C)CC3)c3ccccc32)c(OC)c1
586	Cc1cc(C)c2c(N3CCCC3)nc(C(=O)NC(C)c3ccccn3)nc2n1 (configuration not stated)
796	Cc1c(Cl)cccc1Nc1c(-c2ccc(C(=O)O)cc2)nc2cnccn12
656	O=C(NCc1ccc(N2CCOCC2)cc1)c1cn2nc(Cl)ccc2n1
682	CCNc1nc(C)cc(N2CCN(C(=O)Nc3ccc(Cl)cc3)CC2)n1

RP-LC retention time [s]	Structure (SMILES)
653	Cc1oc2c(c1C(=O)NC(C)c1ccccc1)C1=NC(C)(C)CN1C=N2 (configuration not stated)
1100	CCc1ccccc1NS(=O)(=O)c1cc(-c2nc(C)cs2)sc1C
666	O=C(c1cccs1)N1CCCn2cc(-c3ccccc3F)nc21
567	NC(=O)CSc1nnc(N2CCN(C(=O)c3ccccc3[N+](=O)[O-])CC2)s1
1010	Cc1nc(-c2ccccc2)cc2nn(CC(=O)Nc3ccc(F)c(Cl)c3)c(=O)n12
682	COC(=O)c1ccc(NS(=O)(=O)c2cc3n(c2)CCN(C)C3=O)cc1
765	Cc1nn(Cc2ccc(C(=O)NC3CC3)cc2)c(C)c1S(=O)(=O)N1CCCCC1
728	CSc1cccc(NC(=O)COc2cccc(-c3nnc4n3CCCC4)c2)c1
907	CCN(CC)S(=O)(=O)c1ccc2c(c1)N(CC(=O)NCCCOC(C)C)C(=O)C1CCCCN21 (configuration not stated)
763	CCCn1c(CCc2ccccc2NS(=O)(=O)c2ccc3c(c2)OCCO3)nc2ccccc21
583	O=C(Cc1cccs1)NCCN1CCN(c2ccc(Cl)cc2)CC1
617	CCOc1ccccc1NC(=O)N1CCN(CCn2c(C(C)C)nc3cccnc32)CC1
1010	CCOc1ccccc1NC(=O)C1CCN(S(=O)(=O)c2cc(-c3noc(C)n3)sc2C)CC1
938	O=c1n(Cc2ccc(F)cc2)nc2c(S(=O)(=O)N3CCc4ccccc4C3)cccn12
738	CC(=O)Nc1cc(-c2nc(-c3ccc4oc(-c5ccccc5)nc4c3)no2)ccc1C
882	CCN(c1ccccc1)S(=O)(=O)c1ccc(C(=O)Nc2cc(C)no2)cc1
642	Cc1cc(-n2nnc(C(=O)O)c2-c2ccccn2)ccc1F
868	O=c1ccc(N2CCCN(S(=O)(=O)c3ccc(Cl)cc3)CC2)nn1-c1ccccc1
691	Cc1ccc(-c2cc(=O)n(CC(=O)Nc3nccs3)cn2)cc1
798	CCOC(=O)C1CCN(C(=O)c2ccc3c(c2)CCCN3S(=O)(=O)CC)CC1
874	CCC(C)NC(=O)c1ccc(Cn2nc(C)c(S(=O)(=O)N3CCCCC3)c2C)cc1 (configuration not stated)
941	CCOC(=O)c1cccc(Nc2c(-c3ccc(C)cc3)nc3cnccn23)c1
731	c1ccc2sc(N3CCN(Cc4ccc5c(c4)OCO5)CC3)nc2c1
